System: snoring of a treated person
Assay: anti-snoring effect when applied in the pharynx via the mouth
Type: in vivo
Conditions: active component; test details not given
From the text: The invention provides for this purpose a composition for reducing snoring, comprising at least an active quantity of at least one active component with astringent properties and a physiologically acceptable excipient. Such a composition is preferably applied in the pharynx. […] The composition according to the invention can be applied usefully not only in the domestic domain but also in professional situations where a plurality of people must necessarily sleep in the same space, such as in a dormitory, a hospital or military barracks. […] All formulations are based on water: the shown percentages by weight are thus supplemented to 100% with water. Composition A is a liquid composition which can be used for applying with a spray or as droplets. Composition B is a gel formulation. Composition C is a foam.

## C[C@@H]1C[C@H]2OC(=O)[C@@]3(C)CCC[C@@](C)([C@@H]23)[C@@]1(O)CCc1ccoc1 [Marrubiin, 6-(2-furan-3-yl-ethyl)-6-hydroxy-2a,5a,7-trimethyldekahydronafto[1,8-bc]furan-2-on]
  anti-snoring effect / effects on the level of snoring of a treated person: particularly good anti-snoring effect

Source: US8865229B2, “Marrubiin and composition for reducing snoring, package and method” (Puranox Medical B.V., priority 2005, dated 2014)
